{
  "source": "patent US8952004B2",
  "about": "“CXCR3 receptor antagonists” (Boehringer Ingelheim International GmbH, priority 2010, dated 2015)",
  "origin": "cited, not measured here",
  "tested_on": "atherosclerotic lesion formation",
  "conditions": "LDL receptor knockout model, dosed prophylactically",
  "data": [
    {"smiles": "CCOc1ccc(-n2c(C(C)N(Cc3cccnc3)C(=O)Cc3ccc(F)c(C(F)(F)F)c3)nc3ncccc3c2=O)cc1", "note": "(stereo not shown) [NBI-74330]", "values": [
      {"measurement": "atherosclerotic lesion formation", "result": "significantly attenuated atherosclerotic lesion formation"}
    ]}
  ]
}
